PMC8550792, “Evolution of kinase polypharmacology across HSP90 drug discovery” (Cell Chemical Biology, 2021)

Columns and labels:
Experiment in all cases: biochemical
Format in all cases: biochemical
[1] = target: T1, 382 unique human kinases (Homo sapiens, UniProt O75716); conditions: STK16, [ATP] 5 µM, compound 10 uM; for remaining activity at 10 µM: read-out: % Enzyme Activity (relative to DMSO controls)
T1 construct: purchased Reaction Biology (HotSpot contract assay)

[2] = target: T2, 382 unique human kinases (Homo sapiens, UniProt P29323); conditions: EPHB2, [ATP] 30 µM, compound 10 uM; for remaining activity at 10 µM: read-out: % Enzyme Activity (relative to DMSO controls)
T2 construct: purchased Reaction Biology (HotSpot contract assay)
T2 sequence (P29323 19-1055): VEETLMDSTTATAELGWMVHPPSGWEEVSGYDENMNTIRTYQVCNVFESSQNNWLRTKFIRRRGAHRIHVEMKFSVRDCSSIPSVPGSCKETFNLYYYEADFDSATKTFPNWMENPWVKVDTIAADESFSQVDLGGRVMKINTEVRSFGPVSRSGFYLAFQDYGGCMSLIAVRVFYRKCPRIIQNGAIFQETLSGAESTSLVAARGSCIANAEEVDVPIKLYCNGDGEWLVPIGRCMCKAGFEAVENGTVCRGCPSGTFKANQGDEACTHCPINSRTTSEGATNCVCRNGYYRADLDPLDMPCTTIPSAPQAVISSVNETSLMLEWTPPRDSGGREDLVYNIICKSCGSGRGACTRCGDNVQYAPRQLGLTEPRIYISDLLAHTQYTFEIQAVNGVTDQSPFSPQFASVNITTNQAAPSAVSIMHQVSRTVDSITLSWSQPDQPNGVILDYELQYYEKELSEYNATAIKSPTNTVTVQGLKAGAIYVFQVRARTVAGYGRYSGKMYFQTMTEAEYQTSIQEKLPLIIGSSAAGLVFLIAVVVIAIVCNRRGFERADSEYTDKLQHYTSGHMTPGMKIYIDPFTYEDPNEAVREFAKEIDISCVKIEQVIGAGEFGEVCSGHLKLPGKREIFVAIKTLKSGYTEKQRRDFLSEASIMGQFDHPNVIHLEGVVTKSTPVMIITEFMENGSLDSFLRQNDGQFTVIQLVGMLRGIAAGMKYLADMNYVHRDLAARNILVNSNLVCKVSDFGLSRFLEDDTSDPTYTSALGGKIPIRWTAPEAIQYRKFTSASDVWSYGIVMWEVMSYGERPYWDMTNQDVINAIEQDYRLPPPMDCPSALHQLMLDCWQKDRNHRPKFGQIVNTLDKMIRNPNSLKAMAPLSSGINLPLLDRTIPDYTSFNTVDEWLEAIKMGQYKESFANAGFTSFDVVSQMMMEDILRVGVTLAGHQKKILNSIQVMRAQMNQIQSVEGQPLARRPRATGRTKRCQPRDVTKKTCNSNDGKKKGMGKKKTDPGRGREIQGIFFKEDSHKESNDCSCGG

[3] = target: T3, 382 unique human kinases (Homo sapiens, UniProt P49841); conditions: GSK3b, [ATP] 10 µM, compound 10 uM; for remaining activity at 10 µM: read-out: % Enzyme Activity (relative to DMSO controls)
T3 construct: purchased Reaction Biology (HotSpot contract assay)
T3 sequence (P49841 whole entry): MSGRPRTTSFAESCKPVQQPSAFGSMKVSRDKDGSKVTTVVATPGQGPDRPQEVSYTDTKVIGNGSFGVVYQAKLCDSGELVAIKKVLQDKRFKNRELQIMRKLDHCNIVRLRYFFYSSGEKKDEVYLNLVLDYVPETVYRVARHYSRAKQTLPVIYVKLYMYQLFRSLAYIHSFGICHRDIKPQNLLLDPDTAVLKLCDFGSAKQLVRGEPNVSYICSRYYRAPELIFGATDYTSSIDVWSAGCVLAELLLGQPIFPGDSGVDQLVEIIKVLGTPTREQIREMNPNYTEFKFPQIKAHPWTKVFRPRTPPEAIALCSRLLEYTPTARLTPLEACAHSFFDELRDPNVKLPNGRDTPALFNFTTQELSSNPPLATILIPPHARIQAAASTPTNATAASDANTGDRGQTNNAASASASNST

[4] = target: T4, 382 unique human kinases (Homo sapiens, UniProt Q96SB4); conditions: SRPK1, 10 uM; for remaining activity at 10 µM: read-out: % Enzyme Activity (relative to DMSO controls)
T4 construct: purchased Reaction Biology (HotSpot contract assay)
T4 sequence (Q96SB4 whole entry): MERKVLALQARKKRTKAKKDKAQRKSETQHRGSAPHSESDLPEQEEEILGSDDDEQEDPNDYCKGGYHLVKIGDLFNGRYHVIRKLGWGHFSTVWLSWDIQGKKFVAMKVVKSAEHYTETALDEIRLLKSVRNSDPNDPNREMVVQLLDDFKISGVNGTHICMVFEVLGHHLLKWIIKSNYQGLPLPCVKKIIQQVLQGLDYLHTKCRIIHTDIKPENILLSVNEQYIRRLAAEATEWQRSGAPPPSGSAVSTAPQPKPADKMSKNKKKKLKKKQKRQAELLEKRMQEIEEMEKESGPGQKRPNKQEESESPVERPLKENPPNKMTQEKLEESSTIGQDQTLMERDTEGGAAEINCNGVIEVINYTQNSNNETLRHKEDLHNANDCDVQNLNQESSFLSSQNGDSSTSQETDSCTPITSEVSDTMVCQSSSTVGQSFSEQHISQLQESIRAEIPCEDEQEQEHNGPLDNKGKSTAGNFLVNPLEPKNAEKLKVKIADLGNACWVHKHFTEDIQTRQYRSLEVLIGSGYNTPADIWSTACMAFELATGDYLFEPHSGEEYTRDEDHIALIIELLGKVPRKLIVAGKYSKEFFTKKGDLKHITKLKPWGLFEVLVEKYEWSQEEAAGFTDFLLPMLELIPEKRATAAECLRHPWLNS

[5] = target: T5, 382 unique human kinases (Homo sapiens, UniProt Q9HC98); conditions: NEK6, 10 uM; for remaining activity at 10 µM: read-out: % Enzyme Activity (relative to DMSO controls)
T5 construct: purchased Reaction Biology (HotSpot contract assay)
T5 sequence (Q9HC98 whole entry): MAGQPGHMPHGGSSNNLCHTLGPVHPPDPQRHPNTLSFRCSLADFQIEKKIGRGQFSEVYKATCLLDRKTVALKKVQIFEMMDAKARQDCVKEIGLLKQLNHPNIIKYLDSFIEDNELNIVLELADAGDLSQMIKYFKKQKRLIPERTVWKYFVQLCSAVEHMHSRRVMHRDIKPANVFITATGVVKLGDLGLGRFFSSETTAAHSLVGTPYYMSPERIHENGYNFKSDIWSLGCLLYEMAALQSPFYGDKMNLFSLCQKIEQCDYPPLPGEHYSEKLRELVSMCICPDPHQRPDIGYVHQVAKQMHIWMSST

[6] = target: T6, 382 unique human kinases (Homo sapiens, UniProt P21802, R612T); conditions: FGFR2 (R612T), 10 uM; for remaining activity at 10 µM: read-out: % Enzyme Activity (relative to DMSO controls)
T6 construct: purchased Reaction Biology (HotSpot contract assay)
T6 sequence (P21802 22-821 R612T): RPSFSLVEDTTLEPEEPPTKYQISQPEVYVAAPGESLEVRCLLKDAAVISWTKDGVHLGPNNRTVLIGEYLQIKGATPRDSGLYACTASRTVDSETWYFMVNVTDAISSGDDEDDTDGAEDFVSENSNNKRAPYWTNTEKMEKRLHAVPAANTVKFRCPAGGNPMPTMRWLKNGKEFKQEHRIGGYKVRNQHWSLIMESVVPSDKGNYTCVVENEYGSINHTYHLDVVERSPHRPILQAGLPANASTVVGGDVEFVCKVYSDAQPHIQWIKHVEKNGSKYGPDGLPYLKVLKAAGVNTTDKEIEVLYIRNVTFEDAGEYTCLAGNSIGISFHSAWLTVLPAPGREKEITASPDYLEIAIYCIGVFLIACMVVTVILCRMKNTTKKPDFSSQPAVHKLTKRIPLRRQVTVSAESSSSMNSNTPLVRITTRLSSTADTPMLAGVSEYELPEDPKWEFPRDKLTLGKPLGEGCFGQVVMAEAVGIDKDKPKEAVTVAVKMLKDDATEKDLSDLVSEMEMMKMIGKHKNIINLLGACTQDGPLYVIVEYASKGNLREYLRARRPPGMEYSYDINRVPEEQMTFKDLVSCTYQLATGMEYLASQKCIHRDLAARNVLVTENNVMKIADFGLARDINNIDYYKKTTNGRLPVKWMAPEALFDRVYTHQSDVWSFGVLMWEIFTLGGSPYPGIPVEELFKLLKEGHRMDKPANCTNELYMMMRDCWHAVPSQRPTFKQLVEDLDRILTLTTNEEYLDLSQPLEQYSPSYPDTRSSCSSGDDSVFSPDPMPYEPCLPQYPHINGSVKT

[7] = target: T7, 382 unique human kinases (Homo sapiens, UniProt Q99759); conditions: MEKK3, compound at 10 uM, duplicate values; for remaining activity at 10 µM: read-out: % Enzyme Activity (relative to DMSO controls)
T7 construct: purchased Reaction Biology (HotSpot contract assay)
T7 sequence (Q99759 1-626): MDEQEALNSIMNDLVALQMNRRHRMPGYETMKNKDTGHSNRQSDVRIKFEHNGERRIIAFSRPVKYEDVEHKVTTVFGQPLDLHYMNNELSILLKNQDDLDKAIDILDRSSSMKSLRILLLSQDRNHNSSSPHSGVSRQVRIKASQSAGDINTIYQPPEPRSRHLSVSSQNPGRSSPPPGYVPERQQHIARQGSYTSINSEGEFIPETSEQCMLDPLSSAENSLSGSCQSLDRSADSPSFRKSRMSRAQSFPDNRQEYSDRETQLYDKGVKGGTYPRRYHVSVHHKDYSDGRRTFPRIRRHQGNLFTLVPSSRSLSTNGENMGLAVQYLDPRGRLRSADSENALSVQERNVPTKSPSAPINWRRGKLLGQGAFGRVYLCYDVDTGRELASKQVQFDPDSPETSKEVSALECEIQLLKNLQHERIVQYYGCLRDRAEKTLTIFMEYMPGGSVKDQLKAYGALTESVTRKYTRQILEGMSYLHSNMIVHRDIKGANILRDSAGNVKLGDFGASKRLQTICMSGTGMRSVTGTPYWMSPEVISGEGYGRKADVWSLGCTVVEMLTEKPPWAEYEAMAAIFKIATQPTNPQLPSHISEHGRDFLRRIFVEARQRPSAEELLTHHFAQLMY

T1 sequence (O75716 whole entry): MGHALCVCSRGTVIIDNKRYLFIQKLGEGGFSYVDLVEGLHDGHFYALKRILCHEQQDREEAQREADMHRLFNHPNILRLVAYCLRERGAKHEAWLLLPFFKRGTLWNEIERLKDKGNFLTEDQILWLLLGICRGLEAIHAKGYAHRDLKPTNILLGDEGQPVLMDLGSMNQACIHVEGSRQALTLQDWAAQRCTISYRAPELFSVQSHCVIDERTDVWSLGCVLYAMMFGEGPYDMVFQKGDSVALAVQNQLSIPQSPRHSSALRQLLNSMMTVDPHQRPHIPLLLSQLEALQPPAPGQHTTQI

| SMILES | % Enzyme Activity (relative to DMSO controls) [1] | remaining activity at 10 µM [1] | % Enzyme Activity (relative to DMSO controls) [2] | remaining activity at 10 µM [2] | % Enzyme Activity (relative to DMSO controls) [3] | remaining activity at 10 µM [3] | % Enzyme Activity (relative to DMSO controls) [4] | remaining activity at 10 µM [4] | % Enzyme Activity (relative to DMSO controls) [5] | remaining activity at 10 µM [5] | remaining activity at 10 µM [6] | remaining activity at 10 µM [7] | % Enzyme Activity (relative to DMSO controls) [6] | % Enzyme Activity (relative to DMSO controls) [7] |
| --- | --- | --- | --- | --- | --- | --- | --- | --- | --- | --- | --- | --- | --- | --- |
| CCNC(=O)c1noc(-c2cc(C(C)C)c(O)cc2O)c1-c1ccc(CN2CCOCC2)cc1 [Luminespib] | 98.01% | 98.4% | 61.81% | 63.2% | 110.01% | 110% | 101.35% | 101% | 94.17% | 95.4% | – | – | – | – |
| CC(C)c1cc(-c2n[nH]c(=O)n2-c2ccc3c(ccn3C)c2)c(O)cc1O [Ganetespib (STA9090)] | – | – | – | – | – | – | – | – | – | – | 68.6% | 106% | – | – |
| CCNC(=O)c1noc(-c2cc(C(C)C)c(O)cc2O)c1-c1ccc(CN2CCOCC2)cc1 [Luminespib (AUY-922)] | – | – | – | – | – | – | – | – | – | – | 114% | 122% | 112.07% | 120.79% |
| CC(C)c1cc(-c2n[nH]c(=O)n2-c2ccc3c(ccn3C)c2)c(O)cc1O [Ganetespib] | – | 32.4% | – | 45.3% | – | 29.4% | – | 90.7% | – | 107% | – | – | – | – |
